We go through eight molecules from EP0326331B1, “Substituted quinolines and cinnolines” (Dow AgroSciences LLC, priority 1988, dated 1989).

Assay type in all cases: in vivo
For data set [1], the system named is Venturia inaequalis (apple scab). Description: Test 1 greenhouse foliar spray screen, apple scab on apple seedling. Particulars: disease control rating, foliar spray on apple seedling, 400 ppm (+++ at 100 ppm).
In data set [2] the test system is Cercospora beticola (leaf spot). Description: Test 1 greenhouse foliar spray screen, leaf spot on sugar beet. Particulars: disease control rating, foliar spray on sugar beet, 400 ppm (+++ at 100 ppm).
Data set [3] concerns Twospotted spider mites (Tetranychus urticae Koch). Put plainly: Mite/insect screen, SM. Particulars: percent mortality, SAW; for mortality at 200 ppm / mortality at 400 ppm: Tetranychus urticae, read-out: SM RESULTS %; for mortality at 200 ppm / SM RESULTS %: SM & MA RATE 200 PPM; for mortality at 400 ppm: SM & MA RATE 400 PPM. The method in brief:
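Foliar spray to runoff (10 psi), 1 h drying; aqueous dilutions from acetone/alcohol emulsifier stock. Mortality (%) after standard exposure.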

Data set [4] relates to melon aphids (Aphis gossypii Glover). Put plainly: Mite/insect screen, MA. Particulars: percent mortality, SAW; for mortality at 200 ppm / mortality at 400 ppm: Aphis gossypii, read-out: MA RESULTS %; for mortality at 200 ppm / MA RESULTS %: SM & MA RATE 200 PPM; for mortality at 400 ppm: SM & MA RATE 400 PPM. The procedure, abridged:
(§1)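 Read-out: percent mortality after standard exposure periods. Test solutions were water dilutions of compound dissolved in acetone/alcohol (50:50) with emulsifier blends; leaves were sprayed to runoff on both surfaces and air-dried for one hour before exposure.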

The subject of a further data set is corn rootworm. Description: Mite/insect screen, CRW. Particulars: percent mortality; for mortality at 12 ppm / CRW RESULTS %: CRW RATE 12.00 PPM; for mortality at 12 ppm / mortality at 24 ppm: read-out: CRW RESULTS %; for mortality at 24 ppm: CRW RATE 24.00 PPM. The procedure, abridged:
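Read-out: % mortality after standard exposure. Formulation: acetone/alcohol (50:50) with emulsifiers at 23 g and 13 g per liter, water-diluted to final test levels.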

In data set [5] the test system is Erysiphe graminis tritici (powdery mildew). Put plainly: Test 1 greenhouse foliar spray screen, powdery mildew on wheat. Particulars: disease control rating, foliar spray on wheat, 400 ppm (+++ at 100 ppm).
Data set [6] has as its system Botrytis cinerea (gray mold). Put plainly: Test 1 greenhouse foliar spray screen, gray mold on grape berries. Particulars: disease control rating, spray on grape berries, 400 ppm (+++ at 100 ppm).
In data set [7] the test system is Puccinia recondita tritici (leaf rust). Put plainly: Test 1 greenhouse foliar spray screen, leaf rust on wheat. Particulars: disease control rating, foliar spray on wheat, 400 ppm (+++ at 100 ppm).
The subject of data set [8] is southern armyworm (Spodopetra eridania Cramer). Description: Mite/insect screen, SAW. Particulars: percent mortality, SAW; for mortality at 200 ppm / mortality at 400 ppm: Spodoptera eridania, read-out: SAW RESULTS %; for mortality at 200 ppm / SAW RESULTS %: SM & MA RATE 200 PPM; for mortality at 400 ppm: SM & MA RATE 400 PPM. The procedure, abridged: as §1
Data set [9] relates to Pyricularia oryzae (rice blast). Put plainly: whole plant or invertebrate. Particulars: disease control rating, foliar spray on rice, 400 ppm (+++ at 100 ppm).
Data set [10] concerns Pseudoperonospora cubensis (downy mildew). Description: Test 1 greenhouse foliar spray screen, downy mildew on squash. Particulars: disease control rating, foliar spray on squash, 400 ppm (+++ at 100 ppm).
For data set [11], the system named is Septoria tritici (leaf blotch). Description: Test 1 greenhouse foliar spray screen, leaf blotch on wheat. Particulars: disease control rating, foliar spray on wheat, 400 ppm (+++ at 100 ppm).

For the molecule `Cc1cc(C)c2nccc(NCCC3=CCCCC3)c2c1` [Example 144, N-[2-(1-cyclohexenyl)ethyl]-6,8-dimethyl-4-quinolinamine], in data set [1], the “APPL SCAB” value is “+ (20-89% control at 400 ppm)”. Further, the “LEAF SPOT” value in data set [2] is listed as “+ (20-89% control at 400 ppm)”. Besides, in data set [3], the mortality at 200 ppm amounted to 0% and the mortality at 400 ppm was 0%. Moreover, in data set [4], the mortality at 200 ppm worked out at 0% and the mortality at 400 ppm worked out at 0%. In the data set with corn rootworm, the mortality at 12 ppm is 0% and the mortality at 24 ppm is 0%. For the same molecule, the “POWD MDEW” value in data set [5] is given as “- (0-19% control at 400 ppm)”. The “GRAY MOLD” value in data set [6] is recorded as “- (0-19% control at 400 ppm)”. The “LEAF RUST” value in [7] is “++ (90-100% control at 400 ppm)”. Also, in data set [8], the mortality at 200 ppm turned out to be 0% and the mortality at 400 ppm was determined as 0%. Further, the “RICE BLAST” value in [9] is “+ (20-89% control at 400 ppm)”. In data set [10], the “DOWN MDEW” value is reported as “+++ (90-100% control at 100 ppm)”. In addition, in data set [11], the “LEAF BLOT” value was “- (0-19% control at 400 ppm)”.

With `CCc1ccc2nccc(NCCC3=CCCCC3)c2c1` [Example 145, N-[2-(1-cyclohexenyl)ethyl]-6-ethyl-4-quinolinamine], the “APPL SCAB” value in [1] is listed as “- (0-19% control at 400 ppm)”. The “LEAF SPOT” value in [2] was “+ (20-89% control at 400 ppm)”. Moreover, in data set [3], the mortality at 200 ppm was 0% and the mortality at 400 ppm is 0%. In [4], the mortality at 200 ppm is 0% and the mortality at 400 ppm stood at 0%. Besides, in the data set with corn rootworm, the mortality at 12 ppm was 0% and the mortality at 24 ppm was 0%. Moreover, the “POWD MDEW” value in data set [5] is given as “- (0-19% control at 400 ppm)”. Further, the “GRAY MOLD” value in [6] is on record as “- (0-19% control at 400 ppm)”. Besides, in [7], the “LEAF RUST” value was “+ (20-89% control at 400 ppm)”. Further, in data set [8], the mortality at 200 ppm is 0% and the mortality at 400 ppm was 0%. Besides, the “RICE BLAST” value in [9] is on record as “+ (20-89% control at 400 ppm)”. Besides, the “DOWN MDEW” value in [10] is reported as “+++ (90-100% control at 100 ppm)”. The “LEAF BLOT” value in data set [11] is listed as “- (0-19% control at 400 ppm)”.

On to `c1csc(CCNc2ccnc3ccccc23)c1` [Example 147, N-[2-(2-thienyl)ethyl]-4-quinolinamine], for which, in data set [1], the “APPL SCAB” value was “- (0-19% control at 400 ppm)”. Also, in data set [2], the “LEAF SPOT” value is on record as “- (0-19% control at 400 ppm)”. The mortality at 200 ppm in data set [3], in [4] and in data set [8] was 0% throughout. Also, the mortality at 12 ppm in the data set on corn rootworm stood at 0%. The “POWD MDEW” value in [5] was “- (0-19% control at 400 ppm)”. For the same molecule, the “GRAY MOLD” value in data set [6] is given as “- (0-19% control at 400 ppm)”. Also, the “LEAF RUST” value in data set [7] is “+ (20-89% control at 400 ppm)”. Also, the “RICE BLAST” value in data set [9] was “+ (20-89% control at 400 ppm)”. The “DOWN MDEW” value in data set [10] is “+++ (90-100% control at 100 ppm)”. Besides, the “LEAF BLOT” value in data set [11] is listed as “- (0-19% control at 400 ppm)”.

Consider `c1ccc2c(NCCc3ccsc3)ccnc2c1` [Example 148, N-[2-(3-thienyl)ethyl]-4-quinolinamine], for which the “APPL SCAB” value in data set [1] was “- (0-19% control at 400 ppm)”. In [2], the “LEAF SPOT” value is on record as “+ (20-89% control at 400 ppm)”. In addition, the mortality at 200 ppm in [3], in data set [4] and in data set [8] was 0% in each case. Further, the mortality at 12 ppm in the data set with corn rootworm was determined as 0%. Besides, the “POWD MDEW” value in data set [5] is “- (0-19% control at 400 ppm)”. In [6], the “GRAY MOLD” value was “- (0-19% control at 400 ppm)”. The “LEAF RUST” value in data set [7] was “+ (20-89% control at 400 ppm)”. The “RICE BLAST” value in [9] is “+ (20-89% control at 400 ppm)”. In [10], the “DOWN MDEW” value is “++ (90-100% control at 400 ppm)”. In addition, in data set [11], the “LEAF BLOT” value is “- (0-19% control at 400 ppm)”.

For `Fc1cc(F)c2nccc(NCCc3cccs3)c2c1` [Example 149, 6,8-difluoro-N-[2-(2-thienyl)ethyl]-4-quinolinamine], the “APPL SCAB” value in data set [1] is on record as “- (0-19% control at 400 ppm)”. Besides, in [2], the “LEAF SPOT” value is “+++ (90-100% control at 100 ppm)”. The mortality at 200 ppm in data set [3], in data set [4] and in [8] was 0% throughout. The mortality at 12 ppm in the data set on corn rootworm was 0%. Moreover, in [5], the “POWD MDEW” value was “+ (20-89% control at 400 ppm)”. Besides, in [6], the “GRAY MOLD” value is recorded as “- (0-19% control at 400 ppm)”. The “LEAF RUST” value in [7] is listed as “++ (90-100% control at 400 ppm)”. The “RICE BLAST” value in data set [9] is “+ (20-89% control at 400 ppm)”. Moreover, the “DOWN MDEW” value in data set [10] is reported as “++ (90-100% control at 400 ppm)”. The “LEAF BLOT” value in data set [11] is “+ (20-89% control at 400 ppm)”.

On to `Fc1cc(F)c2nccc(NCCc3ccsc3)c2c1` [Example 150, 6,8-difluoro-N-[2-(3-thienyl)ethyl]-4-quinolinamine], for which the “APPL SCAB” value in data set [1] was “- (0-19% control at 400 ppm)”. Moreover, the “LEAF SPOT” value in data set [2] is recorded as “+++ (90-100% control at 100 ppm)”. Also, in data set [3], the mortality at 200 ppm worked out at 0% and the “SM RESULTS %” value is 0%. Further, in data set [4], the mortality at 200 ppm was determined as 0% and the “MA RESULTS %” value is recorded as 0%. In the data set with corn rootworm, the “CRW RESULTS %” value came to 0% and the mortality at 12 ppm is 0%. In addition, the “POWD MDEW” value in data set [5] is on record as “+ (20-89% control at 400 ppm)”. For the same molecule, the “GRAY MOLD” value in [6] is reported as “- (0-19% control at 400 ppm)”. Moreover, in data set [7], the “LEAF RUST” value was “++ (90-100% control at 400 ppm)”. Besides, in data set [8], the mortality at 200 ppm was 0% and the “SAW RESULTS %” value is recorded as 0%. Also, in [9], the “RICE BLAST” value is listed as “+ (20-89% control at 400 ppm)”. Besides, the “DOWN MDEW” value in data set [10] is “++ (90-100% control at 400 ppm)”. The “LEAF BLOT” value in data set [11] was “+++ (90-100% control at 100 ppm)”.

Consider `c1ccc2c(CCNc3ccnc4ccccc34)cccc2c1` [Example 151, N-[2-(1-naphthyl)ethyl]-4-quinolinamine], for which the “APPL SCAB” value in data set [1] is “- (0-19% control at 400 ppm)”. Further, in data set [2], the “LEAF SPOT” value was “+ (20-89% control at 400 ppm)”. Moreover, the mortality at 200 ppm in [3], in data set [4] and in data set [8] was 0% throughout. Besides, in the data set on corn rootworm, the mortality at 12 ppm came out at 0%. The “POWD MDEW” value in data set [5] is listed as “+ (20-89% control at 400 ppm)”. Further, in data set [6], the “GRAY MOLD” value is recorded as “- (0-19% control at 400 ppm)”. In addition, the “LEAF RUST” value in [7] is “++ (90-100% control at 400 ppm)”. The “RICE BLAST” value in data set [9] is given as “+ (20-89% control at 400 ppm)”. In data set [10], the “DOWN MDEW” value is “+++ (90-100% control at 100 ppm)”. In data set [11], the “LEAF BLOT” value is recorded as “+ (20-89% control at 400 ppm)”.

Take `c1ccc2cc(CCNc3ccnc4ccccc34)ccc2c1` [Example 152, N-[2-(2-naphthyl)ethyl]-4-quinolinamine]: in [1], the “APPL SCAB” value is recorded as “- (0-19% control at 400 ppm)”. Further, the “LEAF SPOT” value in [2] is reported as “+++ (90-100% control at 100 ppm)”. Besides, in [3], the mortality at 200 ppm is 0% and the “SM RESULTS %” value is given as 0%. In [4], the mortality at 200 ppm came out at 0% and the “MA RESULTS %” value is recorded as 0%. Besides, in the data set on corn rootworm, the “CRW RESULTS %” value is recorded as 0% and the mortality at 12 ppm stood at 0%. Also, the “POWD MDEW” value in [5] is given as “++ (90-100% control at 400 ppm)”. Moreover, the “GRAY MOLD” value in data set [6] is recorded as “- (0-19% control at 400 ppm)”. In addition, the “LEAF RUST” value in [7] is given as “++ (90-100% control at 400 ppm)”. In data set [8], the mortality at 200 ppm is 0% and the “SAW RESULTS %” value is 0%. Also, the “RICE BLAST” value in data set [9] was “+++ (90-100% control at 100 ppm)”. Moreover, in [10], the “DOWN MDEW” value is “+++ (90-100% control at 100 ppm)”. Moreover, the “LEAF BLOT” value in data set [11] was “+++ (90-100% control at 100 ppm)”.
